Measurements taken from patent publication US20240252572A1, “ANTI-INFLAMMATORY AGENT FOR INTESTINAL CELLS OF DOMESTIC ANIMAL” (SDS BIOTECH K.K., priority 2021, published 2024).

System: BIE (bovine intestinal epithelial) cells
Assay: Inflammatory cytokine gene expression (RT-PCR) in LPS-stimulated bovine intestinal epithelial cells
Assay type: cell-based
Settings: CNSL 30 ppm, aspirin 10 ppm, single agents
Protocol: To evaluate the effect of endotoxin stimulated inflammatory reaction in the intestine, CNSL, vitamin K1 (FUJIFILM Wako Pure Chemical Corporation), or a combination thereof was added to bovine intestinal epithelial cells, the cells were cultured, and cytokine gene expression analysis was performed. Aspirin was used as a positive control. • 1. Seeding of BIE Cells • BIE (bovine intestinal epithelial) cells were seeded in a 12-well plate (manufactured by COSTAR) at 3.0×10^4 cells/well, and cultured in a CO2 incubator. • 2. […] A culture supernatant was collected, the wells were then washed with the sterilized PBS, and adherent cells were solubilized with TRIZOL, and harvested (at 9:00 p.m. on Day 5 and at 9:00 a.m. on Day 6) (12 hours or 24 hours) The sample in which TRIZOL (manufactured by INVITROGEN) is dissolved is partially purified by phenol-chloroform extraction and ethanol precipitation, and then dissolved in 10 μL of RNase-free water, and the O.D. (absorbance) of the resultant is measured with NanoDrop (manufactured by Thermo Fisher Scientific K.K.). […]

With `CC(=O)Oc1ccccc1C(=O)O` [aspirin, acetylsalicylic acid] the “action of the inflammation mediators, stimulated by endotoxin (LPS)” value was “suppress”.
